Reference: paper PMC5537602, “TRPA1 channel mediates organophosphate-induced delayed neuropathy” (Cell Discovery, 2017)
Read-outs that look alike come from different tables or passages of the source.

Legend:
[1] = biological target: T1, hTRPA1 (Homo sapiens, UniProt O75762); test: cell-based; assay type: cell-based; settings: for activation of hTRPA1 whole-cell currents: 30 μM, calcium-free external solution; for activation of hTRPA1 whole-cell currents by NTE inhibitors: 100 μM
T1 construct: expressed in transfected cells; host or cells: HEK293, transient, EGFP plasmid co-transfected
T1 sequence (O75762 whole entry): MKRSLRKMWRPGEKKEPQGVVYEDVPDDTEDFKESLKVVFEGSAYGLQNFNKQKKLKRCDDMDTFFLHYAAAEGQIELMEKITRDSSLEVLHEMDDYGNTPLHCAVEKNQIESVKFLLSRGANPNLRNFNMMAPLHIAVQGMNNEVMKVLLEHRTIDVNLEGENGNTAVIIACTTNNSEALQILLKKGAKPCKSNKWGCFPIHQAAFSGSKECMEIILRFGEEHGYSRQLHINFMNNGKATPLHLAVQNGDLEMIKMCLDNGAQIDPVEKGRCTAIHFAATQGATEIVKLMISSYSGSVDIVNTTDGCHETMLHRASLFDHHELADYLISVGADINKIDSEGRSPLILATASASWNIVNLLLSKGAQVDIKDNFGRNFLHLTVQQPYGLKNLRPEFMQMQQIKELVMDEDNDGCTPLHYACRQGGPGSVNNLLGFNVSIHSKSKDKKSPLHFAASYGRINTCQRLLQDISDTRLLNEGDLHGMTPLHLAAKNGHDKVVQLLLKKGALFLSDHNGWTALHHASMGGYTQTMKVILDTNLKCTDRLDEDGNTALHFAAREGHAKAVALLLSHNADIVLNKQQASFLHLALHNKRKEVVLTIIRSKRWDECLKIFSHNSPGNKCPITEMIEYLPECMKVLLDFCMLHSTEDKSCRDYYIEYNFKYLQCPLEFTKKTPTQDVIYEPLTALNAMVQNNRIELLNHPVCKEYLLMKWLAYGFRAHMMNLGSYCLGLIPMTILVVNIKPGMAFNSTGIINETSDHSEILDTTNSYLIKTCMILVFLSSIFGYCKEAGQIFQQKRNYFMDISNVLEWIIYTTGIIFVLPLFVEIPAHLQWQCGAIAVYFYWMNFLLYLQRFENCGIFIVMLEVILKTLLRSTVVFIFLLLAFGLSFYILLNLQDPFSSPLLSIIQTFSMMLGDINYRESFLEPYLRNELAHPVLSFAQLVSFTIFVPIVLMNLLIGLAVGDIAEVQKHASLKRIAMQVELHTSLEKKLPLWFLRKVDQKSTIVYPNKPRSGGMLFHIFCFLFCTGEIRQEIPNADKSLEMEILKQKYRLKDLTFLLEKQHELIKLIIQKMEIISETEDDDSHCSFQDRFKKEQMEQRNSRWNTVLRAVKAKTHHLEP
Method: Human embryonic kidney 293 (HEK293) cells were cultured in DMEM containing 10% (vol/vol) heat-inactivated fetal bovine serum, 100 units ml^−1 penicillin–streptomycin and 2 mM L-glutamine at 37 °C in a humidity-controlled sterile incubator with 5% CO2. All cell culture reagents were purchased from Life Technologies. HEK293 cells were transfected transiently with the corresponding plasmids using lipofectamine 2000 (Life Technologies). Transfection efficiency was monitored by co-transfecting EGFP plasmid which codes for the enhanced green fluorescent protein. Electrophysiological recordings were performed between 24 and 36 h after transfection.
(§1) Whole-cell patch-clamp recordings in DRG neurons (small diameter, […]) and HEK293 cells were operated at room temperature (23–25 °C) using EPC-10 amplifier and Patch Master Software (HEKA). […] Currents were sampled at 10 kHz and low-pass filtered at 2.9 kHz. The internal solution was as follows (in mM): 140 CsCl, 10 HEPES, 5 EGTA, 0.1 CaCl2 and 1 MgCl2, with pH adjusted to 7.2 by CsOH and osmolarity 295–300 mOsm. The calcium-free external solution contained (in mM) 140 NaCl, 5 KCl, 0.5 EGTA, 1 MgCl2, 10 Glucose and 10 HEPES, with pH adjusted to 7.4 by NaOH and osmolarity 300–310 mOsm. The 0.5 mM EGTA was replaced by 2 mM CaCl2 for the recordings in DRG neurons. TRPA1 currents development was monitored with repetitive injections of 300 ms duration voltage ramps from −100 to +100 mV every 2 s and the holding potential was set to 0 mV for 50 ms, existing in both sides of the voltage ramp. To record inward currents in DRG neurons, we conducted voltage clamp at holding membrane potential of −70 mV. Solutions were switched using a gravity-fed continuous focal perfusion system.

[2] = biological target: mTRPA1 (Mus musculus, UniProt Q8BLA8); test: FDSS Ca2+-influx assay, HEK293 cells stably expressing mTRPA1; assay type: cell-based; parameters: expressed in transfected cells
mTRPA1, sequence (Q8BLA8 whole entry): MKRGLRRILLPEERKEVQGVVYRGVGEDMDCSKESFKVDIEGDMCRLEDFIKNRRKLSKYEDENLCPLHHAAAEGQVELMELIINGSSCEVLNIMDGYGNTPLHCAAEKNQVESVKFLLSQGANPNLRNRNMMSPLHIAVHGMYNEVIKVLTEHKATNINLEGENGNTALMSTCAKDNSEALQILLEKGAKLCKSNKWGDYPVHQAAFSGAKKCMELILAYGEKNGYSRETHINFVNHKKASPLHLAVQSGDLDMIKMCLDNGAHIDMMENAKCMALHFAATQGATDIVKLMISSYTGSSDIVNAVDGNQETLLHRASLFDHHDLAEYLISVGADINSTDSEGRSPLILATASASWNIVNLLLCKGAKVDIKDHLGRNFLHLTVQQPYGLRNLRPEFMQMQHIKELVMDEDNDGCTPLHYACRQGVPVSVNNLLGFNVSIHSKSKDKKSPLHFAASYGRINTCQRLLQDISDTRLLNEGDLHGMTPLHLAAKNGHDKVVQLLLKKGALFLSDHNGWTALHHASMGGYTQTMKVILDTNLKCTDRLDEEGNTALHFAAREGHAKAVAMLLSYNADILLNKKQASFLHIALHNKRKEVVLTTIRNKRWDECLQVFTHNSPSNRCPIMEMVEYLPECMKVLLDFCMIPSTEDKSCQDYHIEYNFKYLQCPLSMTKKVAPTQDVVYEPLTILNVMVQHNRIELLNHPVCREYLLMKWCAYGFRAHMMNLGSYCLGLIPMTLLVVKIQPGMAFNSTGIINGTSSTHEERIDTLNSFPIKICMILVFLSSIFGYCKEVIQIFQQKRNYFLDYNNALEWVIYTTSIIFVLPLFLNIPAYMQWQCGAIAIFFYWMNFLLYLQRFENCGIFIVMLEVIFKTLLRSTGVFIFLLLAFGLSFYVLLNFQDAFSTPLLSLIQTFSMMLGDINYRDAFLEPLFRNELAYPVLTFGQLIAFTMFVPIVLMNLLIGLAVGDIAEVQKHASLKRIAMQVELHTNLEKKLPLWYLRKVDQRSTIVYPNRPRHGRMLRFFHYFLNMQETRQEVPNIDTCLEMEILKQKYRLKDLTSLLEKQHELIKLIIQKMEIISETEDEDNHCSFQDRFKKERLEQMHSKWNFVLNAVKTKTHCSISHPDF
Method: Ca^2+-influx assays were carried out using HEK293 cells stably expressing mTRPA1 channels with an FDSS screening system (Hamamatsu, Japan). Before the start of the assay, HEK293-mTRPA1 cells were plated onto poly-D-Lysine (40 μg ml^−1) coated 96-well black clear bottom plate with the cell density of 300 000 cells per milliliter in DMEM supplemented with 10% (vol/vol) fetal bovine serum, 200 μg ml^−1 Hygromycin B, 15 μg ml^−1 Blasticidin S HCL and 0.3 μg ml^−1 doxycycline, which could induce the expression of mTRPA1. The 96-well plate was then put in sterile incubator overnight. The following day, Ca^2+ influx dye Fluo-4/AM stock was diluted to 2 μM with bath solution, and added (50 μl per well) in place of the culture medium. The plate was then incubated to load the Fluo-4/AM into cells for 60 min at 37 °C in dark environment. During the incubation, we prepared the compound plate (96-well) and the margin of plate was set as blank control due to the fringing effect. At the end of dye loading period, the remnant dye was removed using bath solution to wash the 96-well cell plate twice and then add 80 μl bath solution per well.

[3] = biological target: T2, cTRPA1 (Gallus gallus, UniProt W8VTH6); test: Whole-cell patch-clamp, HEK293 cells expressing cTRPA1; assay type: cell-based, chicken
T2 sequence (W8VTH6 1-1126): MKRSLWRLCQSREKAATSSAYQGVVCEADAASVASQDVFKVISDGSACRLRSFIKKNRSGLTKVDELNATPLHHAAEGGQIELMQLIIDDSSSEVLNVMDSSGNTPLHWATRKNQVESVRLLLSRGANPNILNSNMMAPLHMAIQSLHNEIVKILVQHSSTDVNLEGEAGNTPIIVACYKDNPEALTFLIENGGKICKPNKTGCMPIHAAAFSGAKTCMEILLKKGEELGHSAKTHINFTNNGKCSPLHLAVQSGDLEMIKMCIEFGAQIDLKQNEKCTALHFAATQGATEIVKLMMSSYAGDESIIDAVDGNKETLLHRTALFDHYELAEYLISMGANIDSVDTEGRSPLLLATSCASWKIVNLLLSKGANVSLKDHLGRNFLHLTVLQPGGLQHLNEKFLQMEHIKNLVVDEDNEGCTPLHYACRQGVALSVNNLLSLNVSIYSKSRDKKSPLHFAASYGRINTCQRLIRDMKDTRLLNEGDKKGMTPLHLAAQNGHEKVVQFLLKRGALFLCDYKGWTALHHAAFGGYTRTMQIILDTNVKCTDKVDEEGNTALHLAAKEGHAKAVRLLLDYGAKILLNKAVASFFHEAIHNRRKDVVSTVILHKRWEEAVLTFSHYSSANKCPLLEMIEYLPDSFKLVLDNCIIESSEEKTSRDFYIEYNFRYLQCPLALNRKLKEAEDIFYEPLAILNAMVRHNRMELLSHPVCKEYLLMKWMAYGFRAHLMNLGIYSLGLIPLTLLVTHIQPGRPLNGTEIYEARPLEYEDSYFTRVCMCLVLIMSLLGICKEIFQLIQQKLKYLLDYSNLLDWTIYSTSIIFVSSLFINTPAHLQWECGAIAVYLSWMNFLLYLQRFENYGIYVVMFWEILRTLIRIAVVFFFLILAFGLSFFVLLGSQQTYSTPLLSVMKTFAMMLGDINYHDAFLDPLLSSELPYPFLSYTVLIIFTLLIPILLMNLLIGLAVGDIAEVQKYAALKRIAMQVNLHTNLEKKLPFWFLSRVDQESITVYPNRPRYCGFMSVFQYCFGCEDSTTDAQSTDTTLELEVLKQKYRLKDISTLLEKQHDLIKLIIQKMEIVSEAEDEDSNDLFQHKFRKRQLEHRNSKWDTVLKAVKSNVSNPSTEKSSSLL
Method: All cell culture reagents were purchased from Life Technologies. HEK293 cells were transfected transiently with the corresponding plasmids using lipofectamine 2000 (Life Technologies). Transfection efficiency was monitored by co-transfecting EGFP plasmid which codes for the enhanced green fluorescent protein. Electrophysiological recordings were performed between 24 and 36 h after transfection.
as §1, with “The internal solution was as follows (in mM): 140 CsCl, 10 HEPES, 5 EGTA, 0.1 CaCl2 and 1 MgCl2, with pH adjusted to 7.2 by CsOH and osmolarity 295–300 mOsm.” left out

[4] = system: hens; assay type: in vivo, hen
Method: The chosen adult Hyline Brown hens were raised individually in stainless steel wire cages. After 7 days of acclimatization, the chosen hens were randomly divided into groups (n=6–10 for each group). The hens in the delayed neuropathy groups were administered a single dose of 750 mg kg^−1 TOCP and repeated doses of 75 mg kg^−1 malathion by gavage. TOCP and malathion were dissolved in corn oil and administered at 0.65 ml kg^−1. In the HC030031 treatment groups, 100 mg kg^−1 HC030031 was administered by gavage daily beginning at day 0 or day 11. All hens were examined daily for signs of delayed neurotoxicity. A five-point graded scale was used to describe the clinical symptoms of delayed neuropathy, with 0 indicating normal ambulation; (1) suspected ataxia (lack of strength in the legs and tottering); (2) mild ataxia (slow, clumsy and unsteady gait); (3) gross ataxia (waddling gait and staggering and falling despite being active); (4) mild paralysis (typical paralytic posture and lame appearance); and (5) complete paralysis (unable to maintain posture, stand up or move at all), as described previously.

[5] = system: mouse DRG neurons; test: Single-cell calcium imaging (Fura-2/AM) of isolated DRG neurons; assay type: cell-based
Method: (§2) DRG neurons were isolated from young C57 BL/6 mice (4–5 weeks). The sections of thoracic and lumbar DRG neurons were rapidly isolated in calcium and magnesium-free PBS with low temperature conditions (ice-bath environment). The isolated tissues were cut into pieces with scissor and incubated for 30 min with 0.1% collagenase and 0.025% trypsin which were diluted by DMEM-F12 at 37 °C. After digestion, neurons were gently dissociated using Pasteur pipettes and then plated onto poly-D-lysine pre-coated glass cover slips. DRG neurons were cultured for 24 h before use.
Calcium influx signals were monitored using the ratio metric fluorescent indicator dye Fura-2/AM at room temperature (23–25 °C). Cells were incubated with 2 μM Fura-2/AM, which was generated by diluting the stock solution with normal external solution, for 30 min at 37 °C. […] The maximum excitation wave length of Fura-2/AM was changed to 340 nm from 380 nm when combined with calcium ions. Fura-2/AM was excited at 340 and 380 nm with a rapid switching monochromator obtained from TILL Photonics, and the mean fluorescence intensity ratios (F340/F380) reflected real-time changes in the concentration of intracellular free calcium ions. The external solution used in the DRG whole-cell patch-clamp recordings was also used for calcium imaging. Solutions were switched using a gravity-fed continuous focal perfusion system.

[6] = system: mice; test: Behavioral testing of mice (paw-licking time after intraplantar injection); assay type: in vivo, mouse; settings: WT mice; AITC 10 μl 5%, malathion 10 μl 30%, intraplantar
Method: The chosen mice were allowed to acclimate to the experimental environment for at least 2 h before testing. Intraplantar injection of 5% AITC and 30% malathion (10 μl) was achieved using separate injectors. Spontaneous pain evoked by the compounds was assessed by measuring the time (s) the mice spent on licking. For the HC030031 groups, 200 mg kg^−1 HC030031 was intragastrically administered, and then the test was conducted after 1 h. The testing phase was divided into two parts: 0–10 min and 11–60 min.

[7] = system: mouse DRG neurons; test: Whole-cell patch-clamp of small-diameter DRG neurons; assay type: cell-based
Method: as §2, §1

[8] = system: mice; test: Transmission electron microscopy of local nerve fibers in mice; assay type: in vivo, mouse; settings: WT mice; plantar injection, 5% AITC or 30% malathion
Method: For mice, subcutaneous tissue from the site of exposure was removed and fixed by immediate immersion in ice-cold 2.5% glutaraldehyde. Subsequently, the samples were post-fixed in 1% OsO4 for 1 h, dehydrated with an ethanol series and embedded in epon resin. Sixty-nanometer ultra-thin sections were double stained with lead citrate and uranyl acetate and examined using an electron microscopy.

SMILES	activation of hTRPA1 whole-cell currents [1]	activation of hTRPA1 whole-cell currents by NTE inhibitors [1]	EC50 [2] [µM]	other results
CCOP(=S)(OCC)Oc1nc(Cl)c(Cl)cc1Cl [chlorpyrifos]	activated			EC50 ([2]; HEK293 cells, change in [Ca2+]i, read-out: EC50, activation of mTRPA1): 10 to 40 µM
CCOC(=O)OCC [Ethyl carbonate]		activated		
CCOP(=S)(OCC)O/N=C(\C#N)c1ccccc1 [phoxim]	activated		10 to 40	
COP(=S)(OC)Oc1ccc(SC)c(C)c1 [fenthion]	activated		10 to 40	
O=S(=O)(Cl)Cc1ccccc1 [Phenylmethanesulfonyl chloride]		activated		
O=S(=O)(Cl)c1ccccc1 [Benzenesulfonyl chloride]		activated		
CNCC[C@H](Oc1cccc2ccccc12)c1cccs1 [duloxetine]				IC50 ([3]; manual whole-cell patch-clamp, TOCP-induced currents, read-out: IC50 on cTRPA1 channels): 4.69 ± 1.4 µM; effect on TOCP-induced symptoms (OPIDN scores) ([4]; in vivo): significantly alleviated
COc1nn(CSP(=S)(OC)OC)c(=O)s1 [methidathion]	activated		10 to 40	
CN1CCC(=C2c3ccccc3CC(=O)c3sccc32)CC1 [ketotifen]				IC50 [3]: 5.79 ± 1.18 µM; effect on TOCP-induced symptoms (OPIDN scores) ([4]; hens, 100 mg kg−1 daily by gavage from day 0): significantly alleviated
C=CCN=C=S [AITC, allyl isothiocyanate]	activated			[Ca2+]i response of DRG neurons from Trpa1−/− mice ([5]; Trpa1−/− neurons): thoroughly unresponsive; neurons displaying a robust increase in [Ca2+]i ([5]; wild-type small-diameter neurons, sequential application of AITC and malathion, 197/451): ~ 44%; nocifensive behavior (paw-licking) after plantar injection [6]: nociception-like response; action potential firing in WT small-diameter neurons ([7]; 100 μM): bursts of action potentials; currents in neurons from Trpa1−/− mice ([7]; Trpa1−/− neurons, 17/17): failed to induce currents; nerve fiber damage around the injection site (TEM) [8]: damage of the myelin sheath
CCSC(=O)N(CC(C)C)CC(C)C [Butylate]		activated		
COP(=O)(OC)OC(Br)C(Cl)(Cl)Br (stereo not shown) [naled]	activated		10 to 40	
